Assay results reported in ChEMBL document CHEMBL1143340, “Osteogenic activity of constituents from Butea monosperma” (Bioorg Med Chem Lett, 2009).
The source made the active and inactive calls. No cut-off for these calls is given here.

tested on: Osteoblast; test: Induction of mineralization in Sprague-Dawley rat calvaria derived primary osteoblast after 7 days by Alizarin Red S staining; format: functional, cell-based

Compound | Activity
COc1ccc2c(=O)c(-c3ccc(O)cc3)coc2c1 | Active
COc1ccc(-c2coc3cc(O)ccc3c2=O)cc1OC | Active
COc1ccc(-c2coc3cc(O)ccc3c2=O)cc1 | Active
COc1cc(O)c2c(=O)c(-c3ccc(O)cc3O)coc2c1 | Active
